Reference: patent publication US7176219B2, “Salts of quinuclidine derivative” (priority 2005, dated 2007)
Like-named read-outs stand apart in the source and are kept apart here.

Columns and labels:
[1] = Evaluation of hygroscopicity (dynamic steam adsorption, weight change); assay type: physicochemical; conditions: 25° C., within the range 5–95% relative humidity
Procedure: A sample (about 5 mg) was placed in a purpose-made quartz holder, and the sample weight at the respective humidity was continuously measured and recorded in the following conditions. The apparatus including data processing was operated according to the method and procedure directed in each device. (Apparatus: dynamic steam adsorption measuring apparatus DVS Advantage, made by SMS)

[2] = Evaluation of stability (1): forced degradation test, impurities by LC; conditions: for Change from Impurity Amt. before Storage (%), Condition 3 / Change from Impurity Amt. before Storage (%), Condition 2: 25° C., 5 days; for Change from Impurity Amt. before Storage (%), Condition 3: NUV (near ultraviolet ray) irradiated; for Change from Impurity Amt. before Storage (%), Condition 3 / Change from Impurity Amt. before Storage (%), Condition 1: tightly closed; for Change from Impurity Amt. before Storage (%), Condition 2: relative humidity 93%, open; for Change from Impurity Amt. before Storage (%), Condition 1: 120° C., 24 hours
Procedure: A sample after storage was dissolved in 1 mL of MeOH and used as a sample solution. The sample solution was diluted 100 times with MeOH and used as a standard solution. Impurities contained in the sample solution was quantitatively analyzed using the standard solution. In this determination, the apparatus including data processing was operated according to the method and procedure directed in each device. (Apparatus: LC-MSD 1100 series, made by Agilent)

[3] = Evaluation of stability (2): stress testing, impurities by LC, UV at 210 nm; assay type: physicochemical
Procedure: A sample (about 5 mg) was weighed in a glass mess-flask of 10 mL and applied to a stress testing in the following storage conditions. • Condition 1: 5° C.—shading—tightly closed • Condition 2: 40° C.—relative humidity 75%—open • Condition 3: 60° C.—shading—tightly closed • Condition 4: 80° C.—shading—tightly closed • Condition 5: 25° C.—D65 (1000 lux)—tightly closed
Chemical stability: After storage, MeOH was placed in the mess-flask containing the sample up to the level of the marked line, and the resulting solution was used as a sample solution. The sample solution was diluted 100 times with MeOH to prepare a standard solution, which was used in determination of impurities contained in the sample solution. Detection of the impurities was performed by means of UV at 210 nm. […] (Apparatus: LC-MSD 1100 series, made by Agilent)

muscarinic M3 receptors = molecular target: T1, muscarinic M3 receptors (Cavia porcellus, UniProt H0W1Z3); assay: Functional affinity estimate for muscarinic M3 receptors in bladders (carbachol-induced intracellular Ca2+ change in bladder smooth muscle cells); assay type: cell-based, guinea pig; conditions: for IC50: inhibition of carbachol-induced Ca2+ increase, guinea pig bladder smooth muscle cells, Fura2; for Ki: IC50 converted by Cheng-Prusoff equation based on EC50 of carbachol
T1 construct: Smooth muscle cells were isolated from guinea pig bladders; from tissue; host or cells: smooth muscle cells freshly isolated from guinea pig bladder
Procedure: Below, the method is described in brief.
Smooth muscle cells were isolated from guinea pig bladders from which the […] had been removed, loaded with a calcium-sensitive fluorescent dye Fura2 and suspended in phenol red-free Hanks' buffer solution supplemented with 20 mM HEPES (pH 7.4) and 0.1% bovine serum albumin. An aliquot of cell suspension (490 μL) was continuously stirred, kept at 28° C. and monitored for the ratio of fluorescence (500 nm) at 340 nm excitation to that at 380 nm excitation. To each aliquot, 5 μL of test compound and carbachol solutions were serially added with a 2 minute interval, and the peak increase in the ratio over the level just before stimulation was used in data analysis.

[4] = test system: carbachol-evoked bladder contraction; assay: Inhibitory effects on carbachol-evoked bladder contraction in anesthetized mice; assay type: in vivo; conditions: anesthetized female mice, i.v., carbachol 10 μg/kg, intravesical pressure
Procedure: The method for determination of inhibitory effects of test compounds on bladder contraction is described as follows.
Female mice, weighing 30 to 35 g, were anesthetized with a sub-lethal dose (75 mg/kg, i.v.) of sodium pentobarbital and placed supine on a heating pad to maintain the body temperature. A polyethylene catheter (PE10) was cannulated to the bladder via the urethra and secured by purse-string suture at the external urethral opening. Another catheter was inserted into the femoral vein for injections of drug solutions at a […]. The bladder catheter was connected to a pressure transducer through a three-way stopcock valve. The bladder was emptied by drainage of urine through the catheter, and then distended with about 100 μL of physiological saline, and the intravesical pressure was measured.
After intravesical pressure stabilization, the muscarinic agonist carbachol (10 μg/kg) was administered repeatedly with an interval of 15 minutes or longer. By this means, bladder contractions occurred in a reproducible manner over 2 hours without deterioration of physical conditions. After three responses to carbachol were obtained, a test compound injection was followed by carbachol administration 10 minutes later and this procedure was repeated with increasing doses of the test compound. In four or five mice per test compound, the percent inhibition of means of prior drug responses was obtained and the dose of test compound required for 50% inhibition (ID50) was estimated by the linear regression analysis. Mice showing rhythmic bladder constriction were not used for the data analysis.

T1 sequence (H0W1Z3 1-590): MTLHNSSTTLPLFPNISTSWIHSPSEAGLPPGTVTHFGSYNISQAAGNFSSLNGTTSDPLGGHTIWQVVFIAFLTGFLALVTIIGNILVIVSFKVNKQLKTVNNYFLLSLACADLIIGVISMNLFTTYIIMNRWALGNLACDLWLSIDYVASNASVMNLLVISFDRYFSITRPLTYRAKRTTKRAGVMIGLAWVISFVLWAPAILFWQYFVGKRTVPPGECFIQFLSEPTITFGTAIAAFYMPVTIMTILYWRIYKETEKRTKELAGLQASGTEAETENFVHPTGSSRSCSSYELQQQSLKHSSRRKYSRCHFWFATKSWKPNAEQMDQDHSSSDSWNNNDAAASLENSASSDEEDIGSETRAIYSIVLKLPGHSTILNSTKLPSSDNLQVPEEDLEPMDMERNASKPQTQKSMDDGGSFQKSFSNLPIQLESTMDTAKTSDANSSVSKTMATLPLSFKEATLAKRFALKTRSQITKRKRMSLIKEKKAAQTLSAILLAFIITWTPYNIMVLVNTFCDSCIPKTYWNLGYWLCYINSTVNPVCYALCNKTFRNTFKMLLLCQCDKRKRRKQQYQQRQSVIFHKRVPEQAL

Row | Molecule | Weight Change (%) [1] | Change from Impurity Amt. before Storage (%), Condition 3 [2] | Change from Impurity Amt. before Storage (%), Condition 2 [2] | Change from Impurity Amt. before Storage (%), Condition 1 [2] | Impurities before Storage (%) [2] | IC50 (muscarinic M3 receptors; IC50 (ng/mL)) | Ki (muscarinic M3 receptors; Ki (nM)) | ID50 (dose required for 50% inhibition of bladder contraction) [4] | Ki (muscarinic M3 receptors; read-out: Ki) | IC50 (muscarinic M3 receptors) | further results
1 | O=C(O[C@H]1CN2CCC1CC2)N1CCc2ccccc2[C@H]1c1ccccc1 [Example 1, (−)-(3R)-quinuclidin-3-yl(1R)-1-phenyl-1,2,3,4-tetrahydroisoquinoline-2-carboxylate (−)-(2S,3S)-tartrate] | <1% | −0.3% | −0.1% | 0.2% | 1.5% | 6.62 nM | 0.68 ± 0.21 nM | 0.079 mg/kg |  |  | Impurities (%) ([3]; Condition 1: 5° C., shading, tightly closed, 1 month): 0.00%; Impurities (%) ([3]; Condition 1: 5° C., shading, tightly closed, 2 months): 0.00%; Impurities (%) ([3]; Condition 1: 5° C., shading, tightly closed, 2 weeks): 0.00%; Impurities (%) ([3]; Condition 2: 40° C., relative humidity 75%, open, 1 month): 0.00%; Impurities (%) ([3]; Condition 2: 40° C., relative humidity 75%, open, 2 months): 0.00%; Impurities (%) ([3]; Condition 2: 40° C., relative humidity 75%, open, 2 weeks): 0.00%; Impurities (%) ([3]; Condition 3: 60° C., shading, tightly closed, 1 month): 0.00%; Impurities (%) ([3]; Condition 3: 60° C., shading, tightly closed, 2 months): 0.00%; Impurities (%) ([3]; Condition 3: 60° C., shading, tightly closed, 2 weeks): 0.00%; Impurities (%) ([3]; Condition 4: 80° C., shading, tightly closed, 1 month): 0.00%; Impurities (%) ([3]; Condition 4: 80° C., shading, tightly closed, 2 months): 0.00%; Impurities (%) ([3]; Condition 4: 80° C., shading, tightly closed, 2 weeks): 0.00%; Impurities (%) ([3]; Condition 5: 25° C., D65 (1000 lux), tightly closed, 1 month): 0.00%; Impurities (%) ([3]; Condition 5: 25° C., D65 (1000 lux), tightly closed, 2 months): 0.00%; Impurities (%) ([3]; Condition 5: 25° C., D65 (1000 lux), tightly closed, 2 weeks): 0.00%
2 | O=C(O[C@H]1CN2CCC1CC2)N1CCc2ccccc2[C@H]1c1ccccc1.O=S(=O)(O)c1ccccc1 [Example 5, (−)-(3R)-quinuclidin-3-yl(1R)-1-phenyl-1,2,3,4-tetrahydroisoquinoline-2-carboxylate benzenesulfonate] | <1% |  |  |  |  | 3.46 nM | 0.47 ± 0.12 nM | 0.059 mg/kg |  |  | Change from Impurity Amt. before Storage (%), Condition 3 ([2]; benzenesulfonate): −0.1%; Change from Impurity Amt. before Storage (%), Condition 2 ([2]; benzenesulfonate): 0.1%; Change from Impurity Amt. before Storage (%), Condition 1 ([2]; benzenesulfonate): 0.3%; Impurities before Storage (%) ([2]; benzenesulfonate): 1.6%
3 | Br.O=C(O[C@H]1CN2CCC1CC2)N1CCc2ccccc2[C@H]1c1ccccc1 [Example 7, (−)-(3R)-quinuclidin-3-yl(1R)-1-phenyl-1,2,3,4-tetrahydroisoquinoline-2-carboxylate hydrobromide] | <4% | 0.3% | 0.2% | −0.2% | 0.5% | 4.06 nM | 0.66 ± 0.28 nM | 0.050 mg/kg |  |  | 
4 | (−)-(3R)-quinuclidin-3-yl(1R)-1-phenyl-1,2,3,4-tetrahydroisoquinoline-2-carboxylate (+)-camphor-10-sulfonate [Example 10] | <2% | 0.0% | 0.0% | 0.0% | 0.9% |  |  |  | 0.65 ± 0.12 nM | 2.6 ± 0.42 ng/mL | 
5 | (−)-(3R)-quinuclidin-3-yl(1R)-1-phenyl-1,2,3,4-tetrahydroisoquinoline-2-carboxylate (−)-L-phenylalaninate [Example 4] | <2% | −0.3% | −0.3% | 50.8% | 1.9% |  |  | 0.090 mg/kg | 0.66 ± 0.046 nM | 2.5 ± 0.044 ng/mL | Increase of impurities under heat ([2]; Condition 1 of Test Example 2 (stability test to heat)): increase of impurities
6 | (−)-(3R)-quinuclidin-3-yl(1R)-1-phenyl-1,2,3,4-tetrahydroisoquinoline-2-carboxylate naphthalene-2-sulfonate [Example 8] | <4% | 2.6% | 0.2% | 1.3% | 2.0% |  |  | 0.057 mg/kg | 0.55 ± 0.12 nM | 2.3 ± 0.87 ng/mL | 
7 | (−)-(3R)-quinuclidin-3-yl(1R)-1-phenyl-1,2,3,4-tetrahydroisoquinoline-2-carboxylate sebacate [Example 9] | <1% | −0.8% | 0.2% | −0.3% | 3.7% |  |  |  | 0.56 ± 0.048 nM | 2.2 ± 0.33 ng/mL | 
